What is called IC50 is the concentration needed to halve the response being measured.

The values below come from ChEMBL document CHEMBL3045859, “Search for monoglyceride lipase inhibitors: synthesis and screening of arylthioamides derivatives” (Med Chem Res, 2009).

Assay [1] addresses T1, Monoglyceride lipase (Homo sapiens, UniProt Q99685).
T1 sequence (Q99685 whole entry): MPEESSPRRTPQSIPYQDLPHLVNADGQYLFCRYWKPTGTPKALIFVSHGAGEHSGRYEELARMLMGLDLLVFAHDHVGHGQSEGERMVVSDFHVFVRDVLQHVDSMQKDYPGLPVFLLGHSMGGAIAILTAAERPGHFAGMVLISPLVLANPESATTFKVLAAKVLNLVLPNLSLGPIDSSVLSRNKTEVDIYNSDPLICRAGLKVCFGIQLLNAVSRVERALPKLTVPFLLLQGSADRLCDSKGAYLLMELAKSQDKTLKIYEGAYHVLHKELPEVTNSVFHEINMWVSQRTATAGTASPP
Nature of the assay: Inhibition of Homo sapiens (human) recombinant monoacylglycerol lipase assessed as inhibition of [3H]-2-oleolylglycerol hydrolysis after 10 min by liquid scintillation counting.

Assay [2] concerns the target T2, Fatty-acid amide hydrolase 1 (Homo sapiens, UniProt O00519).
T2 sequence (O00519 whole entry): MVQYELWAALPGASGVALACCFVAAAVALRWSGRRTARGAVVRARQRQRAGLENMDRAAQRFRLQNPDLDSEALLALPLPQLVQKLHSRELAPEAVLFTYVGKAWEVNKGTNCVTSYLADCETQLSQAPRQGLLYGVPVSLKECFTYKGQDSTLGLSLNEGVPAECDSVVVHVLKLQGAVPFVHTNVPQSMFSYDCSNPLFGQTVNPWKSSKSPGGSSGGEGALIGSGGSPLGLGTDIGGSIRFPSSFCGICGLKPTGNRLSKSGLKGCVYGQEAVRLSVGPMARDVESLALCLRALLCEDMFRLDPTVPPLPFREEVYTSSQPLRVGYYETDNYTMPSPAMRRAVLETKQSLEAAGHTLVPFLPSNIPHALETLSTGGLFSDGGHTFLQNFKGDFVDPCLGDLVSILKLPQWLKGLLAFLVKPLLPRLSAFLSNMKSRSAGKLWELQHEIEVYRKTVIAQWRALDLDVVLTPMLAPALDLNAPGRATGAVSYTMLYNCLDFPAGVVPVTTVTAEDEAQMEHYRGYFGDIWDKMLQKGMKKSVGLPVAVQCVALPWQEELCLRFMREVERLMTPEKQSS
Nature of the assay: Inhibition of Homo sapiens (human) recombinant fatty acid amide hydrolase assessed as inhibition of [3H]-AEA hydrolysis after 10 min by liquid scintillation counting.

With `COC(=O)c1ccc(C(=S)NCCc2ccccc2)cc1`, the IC50 in assay [1] was 26.3 µM; in assay [2], > 1000 µM.

Turning to `COc1ccc(CC(=S)N2CCOCC2)cc1OC`, the IC50 in assay [1] and in assay [2] was > 1000 µM each time.

For `S=C(Cc1ccccc1)N1CCOCC1`, the IC50 in assay [1] and in assay [2] was > 1000 µM throughout.

Consider `S=C(Cc1ccc(-c2ccccc2)cc1)NCCc1ccccc1`, for which the IC50 in assay [1] was 537 µM; in assay [2] it was 724 µM.

For the molecule `S=C(NCCc1ccccc1)c1ccc(Cl)c(Cl)c1`, the IC50 was 75.9 µM in assay [1] and 53.7 µM in assay [2].

With `O=C(c1ccccc1Cl)N1CCOCC1` [(2-CHLOROPHENYL)(MORPHOLINO)METHANONE], the IC50 in assay [1] and in assay [2] was > 1000 µM throughout.

As for `COC(=O)c1ccc(C(=S)N2CCOCC2)cc1`, the results for the IC50 in assay [1] and in assay [2] were 30.9 µM and > 1000 µM, respectively.

`Clc1ccc(CN2CCOCC2)cc1` [4-(4-CHLOROBENZYL)MORPHOLINE]: the IC50 in assay [1] and in assay [2] was > 1000 µM in each case.

Turning to `S=C(c1ccc(C2CCCCC2)cc1)N1CCOCC1`, the IC50 in assay [1] and in assay [2] was > 1000 µM throughout.

As to `S=C(c1ccc(Cl)cc1)N1CCOCC1` [(4-CHLOROPHENYL)(MORPHOLINO)METHANETHIONE], the values for the IC50 in assay [1] and in assay [2] were 77.6 µM and 302 µM, respectively.

As for `S=C(c1ccc(-c2ccccc2)cc1)N1CCOCC1`, the IC50 is 19.5 µM in assay [1] and 30.9 µM in assay [2].

Turning to `O=C(c1ccc(-c2ccccc2)cc1)N1CCOCC1`, the IC50 in assay [1] and in assay [2] was > 1000 µM each time.

Turning to `O=C(c1ccc(Cl)cc1)N1CCOCC1` [(4-CHLOROPHENYL)(MORPHOLINO)METHANONE], the IC50 in assay [1] and in assay [2] was > 1000 µM in each case.

For the molecule `S=C(c1ccc(Br)cc1)N1CCOCC1` [(4-BROMOPHENYL)(MORPHOLINO)METHANETHIONE], the IC50 in assay [1] is 31.6 µM; in assay [2], > 1000 µM.

Regarding `S=C(c1ccc(Cl)c(Cl)c1)N1CCOCC1` [(3,4-DICHLOROPHENYL)(MORPHOLINO)METHANETHIONE], the IC50 in assay [1] and in assay [2] was > 1000 µM in each case.

Take `S=C(c1ccccc1)N1CCOCC1` [MORPHOLINO(PHENYL)METHANETHIONE]: the IC50 in assay [1] and in assay [2] was > 1000 µM throughout.

In the case of `S=C(c1cccc(Cl)c1)N1CCOCC1` [(3-CHLOROPHENYL)(MORPHOLINO)METHANETHIONE], the IC50 in assay [1] and in assay [2] was > 1000 µM throughout.

As to `S=C(c1ccccc1Cl)N1CCOCC1`, the IC50 in assay [1] is 20 µM; in assay [2] it was > 1000 µM.

On to `Oc1ccccc1C(=S)N1CCOCC1` [(2-HYDROXYPHENYL)(MORPHOLINO)METHANETHIONE], for which the IC50 in assay [1] is 60.3 µM; in assay [2], > 1000 µM.

For the molecule `S=C(NCCc1ccccc1)c1ccc(Cl)cc1`, the values for the IC50 in assay [1] and in assay [2] were 437 µM and 407 µM, respectively.

Take `Cc1cccc(C(=S)N2CCCCC2)c1`: the IC50 was > 1000 µM in assay [1] and 61.7 µM in assay [2].

Take `S=C(Cc1ccc(-c2ccccc2)cc1)N1CCOCC1`: the IC50 in assay [1] was 5.75 µM; in assay [2] it was 30.9 µM.

For `Oc1ccc(C(=S)NCCc2ccccc2)cc1O`, the IC50 in assay [1] was 525 µM; in assay [2], 724 µM.

With `Clc1ccccc1CN1CCOCC1`, the IC50 in assay [1] and in assay [2] was > 1000 µM each time.

For `S=C(c1ccc(Cl)cc1Cl)N1CCOCC1` [(2,4-DICHLOROPHENYL)(MORPHOLINO)METHANETHIONE], the half-maximal inhibitory concentration (IC50) in assay [1] and in assay [2] was > 1000 µM in each case.

In the case of `S=C(NCCc1ccccc1)c1ccc(Br)cc1`, the results for the half-maximal inhibitory concentration (IC50) in assay [1] and in assay [2] were 97.7 µM and > 1000 µM, respectively.

In the case of `O=[N+]([O-])c1cccc(C(=S)N2CCOCC2)c1`, the IC50 was 9.55 µM in assay [1] and 245 µM in assay [2].

Turning to `S=C(NCCc1ccccc1)c1ccc(Cl)cc1Cl`, the figures for the IC50 in assay [1] and in assay [2] were 79.4 µM and > 1000 µM, respectively.

Take `S=C(c1ccccc1)N1CCCCC1`: the IC50 in assay [1] and in assay [2] was > 1000 µM in each case.

Take `S=C(Cc1ccc(Cl)cc1)N1CCOCC1`: the IC50 in assay [1] was 14.8 µM; in assay [2] it was 77.6 µM.

With `Fc1ccc(C(=S)NCCc2ccccc2)cc1`, the IC50 in assay [1] and in assay [2] was > 1000 µM throughout.

On to `S=C(NCCc1ccccc1)c1ccccc1` [N-PHENETHYLBENZOTHIOAMIDE], for which the IC50 in assay [1] and in assay [2] was > 1000 µM in each case.

For the molecule `S=C(Cc1ccccc1Cl)N1CCOCC1`, the figures for the IC50 in assay [1] and in assay [2] were 24.5 µM and > 1000 µM, respectively.

Regarding `S=C(NCCc1ccccc1)c1ccccc1Cl`, the IC50 was 166 µM in assay [1] and > 1000 µM in assay [2].

For the molecule `Oc1ccc(C(=S)N2CCOCC2)cc1` [(4-HYDROXYPHENYL)(MORPHOLINO)METHANETHIONE], the IC50 was 204 µM in assay [1] and 562 µM in assay [2].

For the molecule `Cc1ccc(CC(=S)N2CCOCC2)cc1`, the IC50 was 24 µM in assay [1] and 49 µM in assay [2].

`CN(C)c1ccc(C(=S)N2CCOCC2)cc1` [(4-(DIMETHYLAMINO)PHENYL)(MORPHOLINO)METHANETHIONE]: the IC50 in assay [1] and in assay [2] was > 1000 µM in each case.

In the case of `c1ccc(-c2ccc(CN3CCOCC3)cc2)cc1` [4-(BIPHENYL-4-YLMETHYL)MORPHOLINE], the IC50 in assay [1] and in assay [2] was > 1000 µM each time.
